Where only a bound is given, the exact number is not on record here.

For test [1], the system named is CT26 cells. Nature of the test: Proliferation of CT26 cells in the presence of PARP7 inhibitors (CellTiter-Glo, 4 days). The settings on record: CellTiter-Glo (FIG. 5). It counts as cell-based, mouse. The method, then: Example F: Proliferation of CT26 cells in the presence of PARP7 inhibitors
CT26 cells were plated in a 384-well plate and allowed to adhere for several hours before being treated with Compound 18B. Cells were incubated with compound for 4 days prior to processing with CellTiter-Glo reagent (Promega). Luminescence was measured with a Perkin Elmer Envision and percent inhibition was calculated using the vehicle (DMSO) average as 0% inhibition. Non-linear regression analysis was performed using a 4 parameter (variable slope) fit in GraphPad Prism.
Background: In ATP-based viability assays light output follows the ATP content of the culture.

The subject of test [2] is interferon-beta (IFN-β). The experiment in a line: Induction of interferon-beta levels in CT26 cells in the presence of STING agonist DMXAA (FIG. 3). Type of test: cell-based. The settings on record: CT26 mouse colon cancer cells.
Test [3] has as its system interferon-beta (IFN-β). Nature of the test: Induction of interferon-beta levels in RAW264.7 macrophages in the presence of STING agonist DMXAA (FIG. 3). It counts as cell-based. The settings on record: RAW264.7 mouse macrophages.
Test [4] has as its system NCI-H1373 lung cancer xenograft. Nature of the test: Inhibition of tumor growth by oral dosing, human NCI-H1373 lung cancer xenograft. Type of test: in vivo. The settings on record: NCI-H1373 xenograft in SCID mice. The text has this: Example H: Inhibition of Tumor Growth by Oral Dosing with a PARP7 Inhibitor
The effect of Compound 561 on tumor growth was studied in a human NCI-H1373 lung cancer xenograft and a murine CT26 colon cancer syngeneic model.
For the NCI-H1373 study, SCID mice were inoculated subcutaneously in the right flank with NCI-H1373 cells for tumor development. After 5 days of tumor growth, mice with 89-148 mm^3 tumors were randomized into treatment groups with mean tumor volumes of 121 mm^3. The treatments were started from the next day post randomization (defined randomization day as day 0) and were treated with vehicle (50% Labrasol) or Compound 561 (62.5, 125, 250, and 500 mg/kg) once a day for 28 days by oral gavage. Tumor volumes were determined by manual calipers every 2-3 days. Mean tumor volume and SEM are plotted. QD: once a day; PO: per oral administration. Statistical significance is calculated using two-way ANOVA followed by Bonferroni post-tests in which the treatment groups were compared to vehicle control (**** P<0.0001).
On the technique in general: In xenograft studies the graft and the host belong to different species.

The subject of test [5] is SK-LU-1. The experiment in a line: Growth inhibition of cancer cell lines, 144 hours (CellTiter-Glo). It counts as cell-based. The settings on record: Homo sapiens, lung adenocarcinoma. The procedure:
(§1) Example C: Inhibition of Cancer Cell Growth by Treatment with PARP7 Inhibitors
(§2) Table A-2 and Table A-3 (below) represents the concentration that causes 50% growth inhibition (GI50) in a panel of cancer cell lines with Compound 18B and Compound 561. Cells were plated into 384-well plates at a pre-specified density in fetal bovine serum-containing media. Cells were treated with compound or vehicle (DMSO) 24 hrs later, and a day zero plate was collected for analysis. Test compound plates were incubated continuously for 72 hrs (Table A-2) or 144 hours (Table A-3) cell growth was assessed using a luminescent cell viability assay (CellTiter-Glo, Promega). The GI50was determined by correcting for the cell count at time zero (time of treatment) and plotting data as percent growth relative to vehicle-treated cells.

For test [6], the system named is TE-11. Described as above. Type of test: cell-based. The settings on record: Homo sapiens, esophageal squamous cell carcinoma. The procedure:
as §1, §2

Test [7] concerns SK-MEL-2. The test is described as above. The settings on record: Homo sapiens, malignant melanoma. Type of test: cell-based. The method, then:
as §1, §2

The test system of test [8] is NCI-H1437. The description is as above. Type of test: cell-based. The settings on record: Homo sapiens, lung adenocarcinoma. The method, then: as §1, §2
For test [9], the system named is GCT. The test is described as above. It counts as cell-based. The settings on record: Homo sapiens, undifferentiated pleiomorphic sarcoma. The method, then: as §1, §2
Test [10] has as its system LN-18. Described as above. Type of test: cell-based. The settings on record: Homo sapiens, glioblastoma. The procedure: as §1, §2
The subject of test [11] is CFPAC-1. Described as above. It counts as cell-based. The settings on record: Homo sapiens, pancreatic ductal adenocarcinoma. The procedure: as §1, §2
In test [12] the test system is IA-LM. Described as above. Type of test: cell-based. The settings on record: large cell lung carcinoma. The procedure:
as §1, §2

The test system of test [13] is SCaBER. The test is described as above. It counts as cell-based. The settings on record: Homo sapiens, bladder squamous cell carcinoma. The procedure:
as §1, §2

For test [14], the system named is NCI-H1648. The description is as above. It counts as cell-based. The settings on record: Homo sapiens, lung adenocarcinoma. The procedure:
as §1, §2

For test [15], the system named is T84. Described as above. The settings on record: Homo sapiens, colon adenocarcinoma. It counts as cell-based. The method, then:
as §1, §2

Test [16] concerns HPAF-II. The description is as above. Type of test: cell-based. The settings on record: Homo sapiens, pancreatic adenocarcinoma. The method, then: as §1, §2
In test [17] the test system is SK-MES-1. The description is as above. Type of test: cell-based. The settings on record: Homo sapiens, squamous cell lung carcinoma. The procedure: as §1, §2
Test [18] concerns NCI-H1963. The test is described as above. The settings on record: Homo sapiens, small cell lung carcinoma. It counts as cell-based. The method, then:
as §1, §2

Test [19] relates to NCI-H2066. The description is as above. Type of test: cell-based. The settings on record: squamous cell lung carcinoma. The procedure: as §1, §2
In test [20] the test system is NCI-H1944. The test is described as above. The settings on record: Homo sapiens, lung adenocarcinoma. Type of test: cell-based. The procedure:
as §1, §2

In test [21] the test system is AGS. The description is as above. Type of test: cell-based. The settings on record: Homo sapiens, gastric adenocarcinoma. The procedure: as §1, §2
The subject of test [22] is EBC-1. Described as above. It counts as cell-based. The settings on record: Homo sapiens, squamous cell lung carcinoma. The procedure: as §1, §2
In test [23] the test system is HCC827. Described as above. Type of test: cell-based. The settings on record: Homo sapiens, lung adenocarcinoma. The procedure:
as §1, §2

For test [24], the system named is NCI-H2087. The description is as above. Type of test: cell-based. The settings on record: Homo sapiens, lung adenocarcinoma. The method, then:
as §1, §2

The subject of test [25] is SCC-25. Described as above. It counts as cell-based. The settings on record: Homo sapiens, tongue squamous cell carcinoma. The method, then: as §1, §2
Test [26] has as its system NCI-H2347. The description is as above. It counts as cell-based. The settings on record: Homo sapiens, lung adenocarcinoma. The procedure: as §1, §2
Test [27] relates to NCI-H647. The test is described as above. Type of test: cell-based. The settings on record: Homo sapiens, lung adenosquamous carcinoma. The method, then:
as §1, §2

For test [28], the system named is KALS-1. Described as above. Type of test: cell-based. The settings on record: Homo sapiens, glioblastoma. The method, then:
as §1, §2

Test [29] concerns COR-L105. The test is described as above. It counts as cell-based. The settings on record: Homo sapiens, lung adenocarcinoma. The method, then:
as §1, §2

The subject of test [30] is NCI-H1373. The test is described as above. It counts as cell-based. The settings on record: Homo sapiens, lung adenocarcinoma. The method, then: as §1, §2
In test [31] the test system is HT-1080. The description is as above. It counts as cell-based. The settings on record: Homo sapiens, fibrosarcoma. The method, then: as §1, §2

With `N#Cc1ccc(N2CCN(C(=O)c3cccc(OC[C@@H]4c5ccccc5CN4c4cn[nH]c(=O)c4C(F)(F)F)c3)CC2)nc1` (single isomer, unassigned) [Example 18 Isomer B], the “proliferation in CT26 cells in vitro” value in test [1] is listed as “do not inhibit proliferation”. Besides, the “interferon-beta (IFN-β) levels” value in test [2] and in test [3] was “induction” throughout.

The term GI50 denotes the concentration giving 50% growth inhibition. Read a low GI50 as greater sensitivity of the cells. For the compound `C[C@@H](COCCC(=O)N1CCN(c2ncc(C(F)(F)F)cn2)CC1)Nc1cn[nH]c(=O)c1C(F)(F)F` [Example 561, 5-[[(2S)-1-(3-oxo-3-[4-[5-(trifluoromethyl)pyrimidin-2-yl]piperazin-1-yl]propoxy)propan-2-yl]amino]-4-(trifluoromethyl)-2,3-dihydropyridazin-3-one], in [4] (62.5, 125, 250 and 500 mg/kg once a day for 28 days by oral gavage, vs vehicle, P<0.0001 (FIG. 7A)), the tumor growth result is “significantly reduces tumor growth”. Also, in [4] (62.5 to 500 mg/kg once a day for 28 days, all dose levels), the tumor regression result is “complete tumor regression”. Further, the GI50 in test [5] is at least 1000 nM; in test [6], at least 1000 nM; in test [7] it was at least 1000 nM; in [8], at least 1000 nM; in [9], under 100 nM; in test [10], at least 1000 nM. Further, the 50% growth inhibitory concentration (GI50) is 100 to 1000 nM in test [11]; under 100 nM in test [12]; at least 1000 nM in test [13]; at least 1000 nM in test [14]; at least 1000 nM in test [15]; at least 1000 nM in [16]. Moreover, the GI50 in [17] is at least 1000 nM; in test [18] it was at least 1000 nM; in test [19], at least 1000 nM; in test [20] it was at least 1000 nM; in test [21], at least 1000 nM; in [22] it was under 100 nM. Besides, the concentration for 50% growth inhibition (GI50) in test [23] was under 100 nM; in [24], at least 1000 nM; in [25] it was under 100 nM; in test [26], under 100 nM; in test [27], under 100 nM; in [28], at least 1000 nM. Also, the GI50 in [29] was 100 to 1000 nM; in test [30], under 100 nM; in test [31], at least 1000 nM.
